According to patent US20240408052A1, “COMPOSITION CONTAINING SESAMIN AND ERGOTHIONEINE OR SALT THEREOF” (SUNTORY HOLDINGS LIMITED, priority 2021, published 2024):

Tested on: p16-INK4A (p16)
Test: p16 expression in H2O2-treated TIG-3 cells (cellular senescence marker, real-time PCR)
Assay type: cell-based, human
Protocol: TIG-3 cells (human lung fibroblasts) were used to measure the expression level of p16-INK4A (p16) in the cells. Eagle's minimum essential medium supplemented with 10% fetal bovine serum was used in each of Examples 1 and 2, Reference Example 1, and Comparative Examples 1 to 4. A H2O2 (200 μM)-supplemented medium used for H2O2 treatment was prepared by adding H2O2 to the medium described above. The H2O2 (200 μM)-supplemented medium is free of sesamin-class compounds and ergothioneine.
In Examples 1 and 2, in order to investigate the action on cellular senescence, the cells were cultured in a medium containing sesamin-class compounds and ergothioneine and were then treated with the H2O2-supplemented medium. […]
Specifically, TIG-3 cells at 4.0×10^4 cells/well were seeded onto 6-well plates and cultured at 37° C. with CO2 (5%) for 24 hours in a medium supplemented with a sesamin-episesamin mixture (SE) and ergothioneine at the respective concentrations shown in the following Table 1. […] The resulting pellets were dissolved in 20 μL DNase RNase free water (Invitrogen) and measured by NanoDrop. […] A master mix (15 μL) (Takara, TB Green® Premix Ex Taq™ II (Tli RNaseH Plus)) was mixed with the cDNA sample (5 μL), and p16 was measured with a Real-Time PCR system (Applied Biosystems, StepOnePlus-01). An average p16 expression level (n=6) was determined. […]

## C[N+](C)(C)[C@@H](Cc1c[nH]c(=S)[nH]1)C(=O)[O-] [ergothioneine, L-ergothioneine]
FIG. 1, ergothioneine 0.1 μM, 200 μM H2O2 two hours, then six days culture, n=6
  p16 expression level compared to the H2O2-treated group (Comparative Example 1): no significant change
FIG. 2, ergothioneine 10 μM, 200 μM H2O2, p<0.05
  p16 expression compared to the H2O2-treated group (Comparative Example 1): significantly suppressed
